Laboratory results published in BindingDB's records for doi:10.1021/acs.jmedchem.5b00964 (Peking Union Medical College, 2015).

Target: T1, X-box-binding protein 1 (Homo sapiens, UniProt P17861)
T1 sequence (P17861 whole entry): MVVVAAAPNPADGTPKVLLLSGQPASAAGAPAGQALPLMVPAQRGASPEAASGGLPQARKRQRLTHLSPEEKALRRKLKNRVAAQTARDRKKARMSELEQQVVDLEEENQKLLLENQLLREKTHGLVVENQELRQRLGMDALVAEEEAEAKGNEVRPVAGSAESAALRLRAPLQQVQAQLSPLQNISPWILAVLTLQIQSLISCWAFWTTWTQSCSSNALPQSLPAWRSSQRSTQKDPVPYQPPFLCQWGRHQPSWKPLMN
Assay: Transactivation of XBP1 (unknown origin) transfected in rat IEC-6 cells after 48 hrs by dual luciferase reporter gene assay

| EC50 | SMILES |
| --- | --- |
| 220 nM | CC(=O)CC1c2c(ccc3c2OCO3)C=C2c3cc4c(cc3CCN21)OCO4 (stereo not drawn) |
| 210 nM | C=C(C(C)=O)c1c2c3c(ccc2c(C)c2[n+]1CCc1cc4c(cc1-2)OCO4)OCO3 |

| SMILES | EC50 |
| --- | --- |
| C1=C2c3cc4c(cc3CCN2Cc2c1ccc1c2OCO1)OCO4 | 2.3 nM |
